These are literature values, as cited in US10941351B2, “Layer-separation method of spent caustic solution” (SK Innovation Co., Ltd., priority 2016, dated 2021).

The conditions of the data set: at 25° C.

On to `CCCCCCCCO` [n-Octanol, n-octanol], for which the Water solubility was 460 µg/mL.
